In US20180280397A1, “RATIONAL COMBINATION THERAPY FOR THE TREATMENT OF CANCER” (Memorial Sloan Kettering Cancer Center, priority 2015, published 2018):
pIC50: −log10 of the molar value. Entries after “also recorded” stand apart in the source; their conditions may differ. One block for each compound: values may come before it.

Experiments:
[1] = test system: SUDHL4 DLBCL cells; assay: Cell cycle analysis and caspase-3 activation by flow cytometry; format: cell-based
Method: To further establish the potency of a combination of a proteotoxic agent and an Hsp90 inhibitor, in vitro assays were performed on lymphoma cells treated with Doxorubicin (DOX). DOX is a topoisomerase inhibitor that intercalates into DNA to induce DNA damage and oxidative stress. The interaction of DOX and PU-H71 was evaluated using standard criteria for synergy, the median effect/Combination Index (CI) method. A dose-response matrix was used as a means to systematically test multiple ratios of DOX:PU-H71 for interaction in sequential or simultaneous schedules of exposure. […] The effect of each drug and their combination on cell cycle and apoptosis in lymphoma cells with low to medium epichaperome levels, such as the SUDHL4 DLBCL cells was evaluated (FIG. 18c).
SUDHL4 DLBCL cells were exposed to PU-H71 and DOX or combinations in different schedules as indicated. Caspase-3 activation was measured by flow cytometry using PE-conjugated anti-active Caspase-3 antibody (FIG. 18C). Cell cycle analysis was performed in parallel and is shown in the inset at top left of each scatterplot. Frequency of hypodiploid population is indicated.

[2] = test system: BT20 triple negative breast cancer cells; assay: Incucyte kinetic growth assay; format: cell-based; settings: for effect on cell confluency, agent alone: 2 μM paclitaxel or 5 μM PU-H71; for remaining live cells and regrowth after removal of agents: between 130 h and approximately 230 h
Method: MDA-MD-231 and BT20 triple negative breast cancer cells were seeded in tissue culture treated dishes. Once confluent to approximately 50% of the vessel surface area, the cells were treated with medium containing 2 μM paclitaxel, 5 μM PU-H71, vehicle (DMSO), or a combination of 2 μM paclitaxel and 5 μM PU-H71 (together or sequential). Cells were grown in these conditions in an Essen IncuCyte housed in a standard cell culture incubator. Nine images per condition were collected every 2 hours for a total of 316 hours. After 24 hours under the aforementioned treatment conditions, paclitaxel treated cells were treated with medium containing 5 μM PU-H71 or the control vehicle, PU-H71 treated cells were treated with medium containing 2 μM paclitaxel or control vehicle, and the cells treated with vehicle and the combination of PU-H71 with paclitaxel were treated with medium containing control vehicle. All secondary drug additions were added to existing medium containing the original treatment. The existing medium was additionally diluted twice more with medium containing the control vehicle; each dilution occurring 24 hours after the previous. After 96 hours in culture, the medium was aspirated from each well and replaced with cell-appropriate medium with no pharmacological agents. As stated above, cells were monitored for a total of 316 hours (i.e., […] after complete removal of pharmacological agents).

[3] = test system: HSP90 in the epichaperome complex; assay: PU-H71-beads depletion of HSP90 species from cell lysates, isoelectric focusing; format: binding
Text: The supernatant was applied to native gel separation followed by immunoblotting with HSP90 and other epichaperome complex components (left, example for MDAMB468) or nanopro isoelectric focusing and immunoblotting ([…], shown for all 3 cells). Duplicates of each experimental condition are presented. Data were graphed to indicate the relative binding affinity of PU-H71 to the HSP90 species as expressed in the 3 cell types.

[4] = test system: primary breast tumors; assay: Ex vivo treatment of primary breast cancer specimens; format: cell-based; settings: 24 h
Method: Primary breast cancer specimens. Patient tissue procurement was authorized through institutionally review board-approved bio-specimen protocol#09-121 at Memorial Sloan Kettering Cancer Centre (New York, N.Y.). Specimens were treated for 24 h with the indicated concentrations of PU-H71. Following treatment, slices were fixed in 4% formalin solution for 1 h then stored in 70% ethanol. For tissue analysis, slices were embedded in paraffin, sectioned, slide-mounted, and stained with haematoxylin and eosin. Tissue slides were assessed blindly by a breast cancer pathologist who gauged the apoptosis present in the tumor as well as any effect to normal tissue.
Primary breast tumor protocol. The ex vivo protocol employed on this study is depicted schematically in FIG. 4. Sample preparation and treatment are detailed in Ex vivo treatment response of primary tumors and/or associated metastases for preclinical and clinical development of therapeutics. Corben A D, Uddin M M, Crawford B, Farooq M, Modi S, Gerecitano J, Chiosis G, Alpaugh M L. J Vis Exp. 2014 Oct 2; (92):e52157.

[5] = Safety and body weight monitoring in tumor-bearing mice; format: in vivo
Method: Pre-formulated Abraxane® (5 mg/ml) was used.
Five mice were administered the vehicle control.

[6] = test system: primary acute myeloid leukemias; assay: Ex vivo treatment of primary acute myeloid leukemia samples; format: cell-based
Method: Primary acute myeloid leukemia. Cryopreserved primary AML samples were obtained with informed consent and Weill Cornell Medical College institutional review board approval, and from the University of Pennsylvania Stem Cell & Xenograft Core Facility.
Epichaperome abundance determined by the PU-FITC flow cytometry assay. Cells were treated with 1 μM PU-H71-FITC. At 4 h post treatment, cells were washed twice with FACS buffer (PBS-0.5% FBS). To measure PU-H71-FITC binding in live cells, cells were stained with 7-AAD in FACS buffer at room temperature for 10 min, and analyzed by using an BD-LSR-II or BD-Canto cytometry (BD Biosciences). Cell viability was determined using Annexin-V staining. At 48 h post 1 μM PUH71 treatment, cells were stained with Annexin-V BD Horizon-V450 (BD Biosciences) and 7-AAD in Annexin-V buffer, and subjected to flow cytometry to measure viability determined by AnnexinV/7AAD double negative gates.

[7] = test system: cancer cell lines; assay: Cell viability by Annexin V staining in type 1 and type 2 cancer cells; format: cell-based; settings: for apoptotic sensitivity, type 1 tumors / apoptotic sensitivity, type 2 tumors: Annexin V staining
Method: (FIG. 3c). Cells were treated with 1 μM PU-H71-FITC. At 4 h post treatment, cells were washed twice with FACS buffer. To measure PU-H71-FITC binding in live cells, cells were stained with 7-AAD in FACS buffer at room temperature for 10 min, and analyzed by flow cytometry (BD Biosciences). Cell viability was determined using Annexin v staining. […]

[8] = test system: triple-negative breast cancer mouse models; settings: pre-clinical; cited from earlier work
[9] = test system: epichaperome; assay: Induction of epichaperome, native gel of HSP90 complexes in treated cancer cells; format: cell-based; settings: cells pretreated with paclitaxel for 1 h then drug washed off
Method: Cells were cultured using the procedure described in Example 1. The proteotoxic stressor (e.g., paclitaxel or bortezomib) was added for 6 hours and then the cells were lysed. The homogenate was applied for separation on a gel under native conditions.
For the wash off studies (FIG. 8d), cells were cultured and then treated with paclitaxel (referred to as PAC in figure) for 1-2 hours to mimic in vivo conditions. The paclitaxel was then washed off to determine how long the epichaperome is maintained in vitro.

[10] = test system: HER2+ tumors; settings: patients with progressive disease after trastuzumab therapy; cited from earlier work
[11] = test system: BJAB Burkitt lymphoma cells; assay: MTS viability assay, DOX followed by PU-H71; format: cell-based; settings: Homo sapiens, 24 h
Method: BJAB Burkitt lymphoma cells were exposed to serial dilutions of DOX for 24 h prior to addition of 500 nM PU-H71. Viability was measured 24 h later using standard MTS assay. Sextuplicate data points were averaged and normalized against untreated (DOX alone) or PU-H71-treated (DOX followed by PU-H71) controls. Data is presented as mean±SD.

Compound: CC(C)NCCCn1c(Sc2cc3c(cc2I)OCO3)nc2c(N)ncnc21 [PU-H71, 8-(6-Iodo-benzo[1,3]dioxol-5-ylsulfanyl)-9-(3-isopropylamino-propyl)-9H-purin-6-ylamine]
effect on cell cycle ([1]; 24 h exposure to 1 μM PU-H71): G1/S arrest | effect on cell confluency, agent alone [2]: cytotoxic effect | remaining live cells and regrowth after removal of agents [2]: a few live cells and these cells start to regrow | relative binding affinity for HSP90 species ([3]; epichaperome / stress HSP90 vs housekeeping, normal cell HSP90): higher affinity for the stress HSP90 species; also recorded: higher affinity and selectivity | amount of epichaperome in the lysates ([3]; increasing amounts of PU-H71 attached to a solid support): dose-dependent reduction | apoptosis / killing of tumors expressing stable multimeric epichaperome forms [4]: most effectively killed; also recorded: readily underwent apoptosis | sensitivity of adjacent benign tissue [4]: insensitive | sensitivity of tumors not enriched in the epichaperome (type 2) [4]: mostly unaffected; also recorded: far less sensitive | adverse effects ([5]; Example 13: NCI-H1975, HCC1806 or MDA-MB-231 bearing mice, ip once a week, PU-H71 75 mg/kg, Abraxane 30 mg/kg): No adverse effects were observed | adverse effects ([5]; Example 14: MiaPaca2 bearing mice, Abraxane 30 mpk iv or ip 1x wk, PU-H71 75 mpk ip 1x or 2x wk, 40-day treatment): No adverse effects were observed | adverse effects ([5]; Example 15: HCC1806 bearing mice, Abraxane 30 mpk iv 1x wk, PU-H71 75 mpk ip 1x or 2x wk, 40-day treatment): No adverse effects were observed | sensitivity of non-malignant lymphocytes in the AML samples [6]: insensitive | sensitivity of type 2 tumors [6]: mostly unaffected | killing of leukemias expressing stable multimeric epichaperome forms ([6]; n=40): most effectively killed | cell death ([7]; cells enriched in the epichaperome vs cells with lower levels, 1 μM, 48 h): more likely to die | sensitivity to killing ([7]; cells with AHA-1 levels reduced by siRNA, 24 h): less amenable to killing | single-agent anti-tumor effect [8]: most potent targeted single-agent anti-tumor effect yet reported

Compound: CC1(C)CC(=O)c2c(C(F)(F)F)nn(-c3ccc(C(N)=O)c(N[C@H]4CC[C@H](O)CC4)c3)c2C1 [SNX2112]
apoptotic sensitivity, type 1 tumors ([7]; 48 h): effectively killed | apoptotic sensitivity, type 2 tumors ([7]; 48 h): refractory

Compound: CC(=O)O[C@H]1C(=O)[C@@]2(C)[C@H]([C@H](OC(=O)c3ccccc3)[C@]3(O)C[C@H](OC(=O)[C@H](O)[C@@H](NC(=O)c4ccccc4)c4ccccc4)C(C)=C1C3(C)C)[C@]1(OC(C)=O)CO[C@@H]1C[C@@H]2O [paclitaxel, reference compound]
effect on cell confluency, agent alone [2]: cytotoxic effect | remaining live cells and regrowth after removal of agents [2]: a few live cells and these cells start to regrow | time of decrease of epichaperome to endogenous levels [9]: ≤ 24 h | time of peak epichaperome levels [9]: 5 to 7 h

Compound: CCNC(=O)c1noc(-c2cc(C(C)C)c(O)cc2O)c1-c1ccc(CN2CCOCC2)cc1 [NVP-AUY-922]
apoptotic sensitivity, type 1 tumors ([7]; 48 h): effectively killed | apoptotic sensitivity, type 2 tumors ([7]; 48 h): refractory

Compound: CO[C@H]1/C=C\C=C(/C)C(=O)NC2=CC(=O)C(NCCN(C)C)=C(C[C@@H](C)C[C@H](OC)[C@H](O)[C@@H](C)/C=C(\C)[C@@H]1OC(N)=O)C2=O [17-DMAG]
clinical response [10]: elicited responses

pIC50 ([11]; 500 nM PU-H71 added sequentially 24 h after DOX, viability 24 h later): 7.12 | pIC50 ([11]; DOX alone, DOX 24 h, viability measured 24 h later): 6.40
Compound: COc1cccc2c1C(=O)c1c(O)c3c(c(O)c1C2=O)C[C@@](O)(C(=O)CO)C[C@@H]3O[C@H]1C[C@H](N)[C@H](O)[C@H](C)O1 [DOX, Doxorubicin]
effect on cell cycle ([1]; 24 h exposure to doses of DOX below the IC50): loss of S-phase fraction and accumulation in G2/M
